Measurements published in patent US20230142062A1, “THE APPLICATION OF ALOESIN IN THE PREPARATION OF PRODUCTS FOR PREVENTING OR TREATING OBESITY” (HAINAN MEDICAL UNIVERSITY, priority 2020, published 2023).

Legend:
Type in all cases: cell-based, mouse
IL-1β = experiment: ELISA, IL-1β in supernatant of 3T3-L1 adipocytes; conditions: 15 and 30 μM, 48 hours
Procedure: (§1) The 3T3-L1 adipocytes were treated with aloesin for 48 hours, then the supernatant was collected, and the levels of adiponectin and IL-1β in the supernatant were detected with an ELISA kit (Proteintech, China). The ELISA reagent operation was carried out according to the manufacturer's instructions.

adiponectin [1] = experiment: Real-time quantitative PCR, adiponectin mRNA in 3T3-L1 adipocytes; conditions: 15 μM, qPCR
3T3-L1 adipocytes = experiment: Lipid accumulation in 3T3-L1 adipocytes (Oil Red O staining); conditions: 15 and 30 μM
Procedure: (§2) Mouse 3T3-L1 preadipocytes were inoculated with high glucose culture medium (H-DMEM, Hyclon) containing 10% fetal bovine serum (Gibco) and antibiotics (100 U/mL penicillin G and […] streptomycin) at a density of 1×10^4 /mL in an incubator at 37° C. and 5% CO2 for 72 hours. In order to induce the differentiation of 3T3-L1 preadipocytes, when 80% cells are fused, on day 0, growth medium (GM) containing 10% fetal bovine serum, 10 μg/mL insulin (sigma), 1 μM dexamethasone (sigma), 0.5 mM isobutyl-1-Methylxanthine (sigma) was added therein. On the second day, the medium was replaced with a high-glycemic medium containing 10% calf serum and 10 μg/mL insulin. On the 10th day, a large number of lipid droplets accumulated during the differentiation of pre-adipocytes.
(§3) The differentiated adipocytes were washed 3 times with PBS, fixed with 10% formaldehyde for 1 hour, then washed 3 times with PBS again, dried for 15 to 30 minutes and stained with Oil Red O working solution for 2 hours. Wash 2 times and 3 times with 60% isopropanol (IPA) and double distilled water respectively. A Zeiss fluorescence microscope (Tokyo, Japan) was used to collect images. 100% IPA extracts Oil Red O, and the absorbance at 490 nm was measured.
After 3T3-L1 preadipocytes were induced to differentiate into adipocytes, aloesin (15 and 30 μM) was added to the adipocytes and cultured for 24 h and 48 h respectively.

PRDM16 = experiment: Real-time quantitative PCR, PRDM16 mRNA in 3T3-L1 adipocytes; conditions: qPCR
Procedure: (§4) Total RNA extraction reagent (TIANGEN, China) was used to extract total RNA from 3T3-L1 adipocytes. Use 1st strand cDNA kit (Vazyme biotechnology) for reverse transcription into cDNA. SYBR Green PCR Master Mix Kit (Monad, China) reagent and CFX-1000 Touch instrument ([…]) were used to detect the mRNA level of adipocyte browning genes (Ucp-1 and PRDM16) and transcription factors (Fabp, Ppar-γ and C-EBPα). The following conditions were used for reverse transcription: 5 min at 25° C., 15 min at 50° C., and 5 min at 85° C. Amplification: initial denaturation at 95° C. for 30 seconds, followed by denaturation at 95° C. for 5 seconds and 59° C. for 30 seconds (40 cycles). The β-actin was used as a reference gene to standardize the qPCR reaction. The relative expression of genes was calculated based on the average Ct value between samples. Relative expression level=2^{[Cttarget gene−Ct (β-actin)]aloesin treatment group−[Cttarget gene−Ct(β-actin)] 3T3-L1adipocyte]}.

C-EBPα = experiment: Real-time quantitative PCR, C-EBPα mRNA in 3T3-L1 adipocytes; conditions: 15 and 30 μM, qPCR
Procedure: as §4

3T3-L1 preadipocytes [2] = experiment: Differentiation of preadipocytes after aloesin pretreatment (Oil Red O staining); conditions: pretreated with 15 and 30 μM for 24 h and 48 h, then differentiated for 10 days
Procedure: as §2, §3
3T3-L1 pre-adipocytes were pre-incubated by the aloesin with concentration of 15 and 30 μM for 24 h and 48 h, respectively. […]

FABP = experiment: Real-time quantitative PCR, FABP mRNA in 3T3-L1 adipocytes; conditions: 15 and 30 μM, qPCR
Procedure: as §4

PPAR-γ = experiment: Real-time quantitative PCR, PPAR-γ mRNA in 3T3-L1 adipocytes; conditions: 15 and 30 μM, qPCR
Procedure: as §4

UCP-1 = experiment: Real-time quantitative PCR, UCP-1 mRNA in 3T3-L1 adipocytes; conditions: qPCR
Procedure: as §4

adiponectin [3] = experiment: ELISA, adiponectin in supernatant of 3T3-L1 adipocytes; conditions: 15 μM, 48 hours
Procedure: as §1

3T3-L1 preadipocytes [4] = experiment: MTT cell viability of 3T3-L1 preadipocytes; conditions: 15 and 30 μM aloesin, 24 h and 48 h
Procedure: as §2
Cell viability was determined by MTT, 3T3-L1 preadipocytes were seeded in 96-well plates at a density of 1×10^4 /mL, cultured in an incubator for 24 hours, and then replaced with a medium respectively containing 10, 15, 30 and 60 μM aloesin to continuously cultivate for 24 h or 48 h. 0.5% MTT was added to the cells, after incubating for 1 hour at 37° C., the MTT solution was removed, and DMSO was added to dissolve. The absorbance at 570 nm was measured using an enzyme-labeled instrument (Molecular Devices, CA, USA). Cell viability (%) is expressed as a percentage relative to untreated control cells.

SMILES: CC(=O)Cc1cc(=O)c2c(C)cc(O)c([C@@H]3O[C@H](CO)[C@@H](O)[C@H](O)[C@H]3O)c2o1 [aloesin]
- release of IL-1β in adipocytes (IL-1β): reduce
- mRNA expression of adiponectin in adipocytes (adiponectin [1]): enhance
- lipid accumulation of adipocytes (3T3-L1 adipocytes; 48 h, compared with the control group): significantly reduce
- lipid accumulation in 3T3-L1 adipocytes (3T3-L1 adipocytes; treatment for 24 hours): did not affect
- expression of browning gene PDRM16 (mRNA) (PRDM16): increase
- expression of the transcription factor C-EBPα (mRNA) (C-EBPα): increase
- differentiation of 3T3-L1 preadipocytes (3T3-L1 preadipocytes [2]): did not affect
- expression of FABP (mRNA) (FABP): did not affect
- expression of PPAR-γ (mRNA) (PPAR-γ): did not affect
- expression of browning gene UCP-1 (mRNA) (UCP-1): increase
- release of adiponectin in adipocytes (adiponectin [3]): enhance
- pre-adipocytes viability (3T3-L1 preadipocytes [4]): did not influence
